Measured values taken from publication PMC4774911, “Biochemical Screening of Five Protein Kinases from Plasmodium falciparum against 14,000 Cell-Active Compounds” (PLoS ONE, 2016).
Like-named read-outs stand apart in the source and are kept apart here. Values belong to the molecule of their own block, whether it stands above or below them.

Legend:
3D7 PFLDH [1] = tested on: 3D7 PFLDH; parameters: method as in F.J. Gamo et al., Nature 2010; concentration or dose not given beside the values; details: downloaded from ChEMBL, ref F.J. Gamo et al., Nature 2010; cited from earlier work
[2] = target: T1, Plasmodium falciparum calcium-dependent protein kinase 1 (CDPK1) (Plasmodium falciparum, UniProt P62344); assay: CDPK1 Kinase-Glo ATP-consumption screen and dose-response; type: biochemical; details: hits below 1 uM; read-out: CDPK1 IC50
T1 construct: 6-Histidine (N); made in house
T1 sequence (P62344 whole entry): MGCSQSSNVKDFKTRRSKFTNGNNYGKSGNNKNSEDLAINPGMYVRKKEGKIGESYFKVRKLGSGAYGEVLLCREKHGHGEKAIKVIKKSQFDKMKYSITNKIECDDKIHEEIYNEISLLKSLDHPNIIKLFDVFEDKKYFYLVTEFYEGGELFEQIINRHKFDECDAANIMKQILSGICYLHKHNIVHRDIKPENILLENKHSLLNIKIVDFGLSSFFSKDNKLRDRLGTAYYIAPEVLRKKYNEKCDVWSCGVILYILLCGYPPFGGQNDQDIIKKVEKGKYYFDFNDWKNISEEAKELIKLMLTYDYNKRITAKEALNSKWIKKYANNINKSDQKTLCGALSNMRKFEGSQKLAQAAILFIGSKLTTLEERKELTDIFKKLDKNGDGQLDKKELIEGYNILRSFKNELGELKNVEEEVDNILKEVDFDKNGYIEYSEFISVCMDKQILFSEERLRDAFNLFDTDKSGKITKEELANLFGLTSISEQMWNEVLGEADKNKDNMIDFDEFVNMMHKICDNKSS
Procedure, shortened: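 Single-point testing used 1 μM final compound, then dose-response, against CDPK4 and CDPK1 with Syntide-2 (40 μM) as substrate. After 90 min, reactions were halted by 5 mM EGTA, and kinase activity was inferred from depleted ATP via Kinase-Glo luminescence.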

DD2 [3] = tested on: DD2; parameters: method as in F.J. Gamo et al., Nature 2010; details: downloaded from ChEMBL, ref F.J. Gamo et al., Nature 2010; cited from earlier work
HepG2 cells = details: cited from earlier work
P. falciparum 3D7 cells = details: cited from earlier work
[4] = target: T2, Plasmodium falciparum protein kinase 6 (PK6) (Plasmodium falciparum, UniProt Q8IDW1); assay: biochemical
T2 construct: 6-Histidine (N); made in house
T2 sequence (Q8IDW1 1-305): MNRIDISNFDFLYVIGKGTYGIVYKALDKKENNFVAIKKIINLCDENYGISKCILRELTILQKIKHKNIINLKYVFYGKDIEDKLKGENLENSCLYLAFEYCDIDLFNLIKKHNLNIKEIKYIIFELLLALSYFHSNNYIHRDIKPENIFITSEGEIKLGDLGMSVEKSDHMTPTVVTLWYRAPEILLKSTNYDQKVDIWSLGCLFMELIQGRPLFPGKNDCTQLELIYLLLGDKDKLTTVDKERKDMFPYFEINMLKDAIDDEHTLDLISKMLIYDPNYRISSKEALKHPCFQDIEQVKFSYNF

DD2 [5] = tested on: DD2; parameters: method as in downloaded from ChEMBL; details: ref downloaded from ChEMBL; cited from earlier work
3D7 PFLDH [6] = tested on: 3D7 PFLDH; parameters: method as in downloaded from ChEMBL; details: ref downloaded from ChEMBL; cited from earlier work
DD2 [7] = tested on: DD2; parameters: method as in F.J. Gamo et al., Nature 2010; details: P. falciparum Dd2; downloaded from ChEMBL ref F.J. Gamo et al., Nature 2010; cited from earlier work
3D7 PFLDH [8] = tested on: 3D7 PFLDH; parameters: method as in F.J. Gamo et al., Nature 2010; details: downloaded from ChEMBL ref F.J. Gamo et al., Nature 2010; cited from earlier work
[9] = HepG2, downloaded from ChEMBL, ref F.J. Gamo et al., Nature 2010
[10] = 3D7, downloaded from ChEMBL, ref F.J. Gamo et al., Nature 2010
[11] = hits below 1 uM, read-out: PK6 IC50
[12] = HEPG2, ref downloaded from ChEMBL
[13] = 3D7, ref downloaded from ChEMBL
[14] = HepG2 cells, downloaded from ChEMBL ref F.J. Gamo et al., Nature 2010
[15] = P. falciparum 3D7, downloaded from ChEMBL ref F.J. Gamo et al., Nature 2010

Compound: O=C(O)C(F)(F)F.O=c1[nH]ccc2nc(N[C@@H]3CCCNC3)nc(Nc3ccc(S(=O)(=O)N4CCOCC4)cc3)c12 [TCMDC-135038]
PCT_INHIB_3D7_PFLDH (3D7 PFLDH [1]): 0%
IC50 [2]: 0.146 µM
PCT_INHB_DD2 (DD2 [3]): 99%
PCT_INHIB_HEPG2 (HepG2 cells; [9]): 13%
PCT_IHB_3D7 (P. falciparum 3D7 cells; [10]): 96%
pXC50_3D7 (P. falciparum 3D7 cells; [10]): 6.13
IC50 [4, 11]: 0.115 µM

Compound: COc1ccc(Nc2ncc3c(-c4cccc(NC(=O)Cc5cccc(O)c5)c4)c[nH]c3n2)cc1OC [TCMDC-135247]
PCT_INHB_DD2 (DD2 [5]): 96
IC50 [2]: 0.312 µM
PCT_INHIB_3D7_PFLDH (3D7 PFLDH [6]): 0
PCT_INHIB_HEPG2 (HepG2 cells; [12]): 44
PCT_IHB_3D7 (P. falciparum 3D7 cells; [13]): 100
pXC50_3D7 (P. falciparum 3D7 cells; [13]): 6.156

Compound: COc1ccc(-c2cnc3[nH]cc(-c4ccncc4)c3c2)cc1OC [TCMDC-135853]
PCT_INHB_DD2 (DD2 [5]): 97
IC50 [2]: 0.39 µM
PCT_INHIB_3D7_PFLDH (3D7 PFLDH [6]): 0
PCT_INHIB_HEPG2 (HepG2 cells; [12]): 52
PCT_IHB_3D7 (P. falciparum 3D7 cells; [13]): 98
pXC50_3D7 (P. falciparum 3D7 cells; [13]): 6.899

Compound: CS(=O)(=O)Nc1cccc(-c2cnc3[nH]cc(-c4ccc(CN)cc4)c3c2)c1 [TCMDC-136218]
PCT_INHB_DD2 (DD2 [5]): 95
IC50 [2]: 0.552 µM
PCT_INHIB_3D7_PFLDH (3D7 PFLDH [6]): 2
PCT_INHIB_HEPG2 (HepG2 cells; [12]): 27
PCT_IHB_3D7 (P. falciparum 3D7 cells; [13]): 98
pXC50_3D7 (P. falciparum 3D7 cells; [13]): 6.0063

Compound: CS(=O)(=O)Nc1cccc(-c2cnc3[nH]cc(-c4cccc(CN)c4)c3c2)c1 [TCMDC-136219]
PCT_INHB_DD2 (DD2 [5]): 82
IC50 [2]: 0.387 µM
PCT_INHIB_3D7_PFLDH (3D7 PFLDH [6]): 0
PCT_INHIB_HEPG2 (HepG2 cells; [12]): 25
PCT_IHB_3D7 (P. falciparum 3D7 cells; [13]): 96
pXC50_3D7 (P. falciparum 3D7 cells; [13]): 5.779

Compound: CS(=O)(=O)c1cccc(-c2cnc3[nH]cc(-c4cccc(CCN)c4)c3c2)c1.O=C(O)C(F)(F)F [TCMDC-136307]
PCT_INHB_DD2 (DD2 [5]): 74
IC50 [2]: 0.044 µM
PCT_INHIB_3D7_PFLDH (3D7 PFLDH [6]): 0
PCT_INHIB_HEPG2 (HepG2 cells; [12]): 0
PCT_IHB_3D7 (P. falciparum 3D7 cells; [13]): 99
pXC50_3D7 (P. falciparum 3D7 cells; [13]): 5.808

Compound: CCN(CC)CCNc1nccc(N(C)c2ccc(NC(=O)Nc3cc(C(F)(F)F)ccc3F)cc2)n1.O=C(O)C(F)(F)F [TCMDC-141632]
PCT_INHIB_3D7_PFLDH (3D7 PFLDH [1]): 1%
PCT_INHB_DD2 (DD2 [3]): 25%
PCT_INHIB_HEPG2 (HepG2 cells; [9]): 74%
PCT_IHB_3D7 (P. falciparum 3D7 cells; [10]): 97%
pXC50_3D7 (P. falciparum 3D7 cells; [10]): 6.26
IC50 [4]: 0.917 µM

Compound: CCN(CC)CCCNc1nccc(N(C)c2ccc(NC(=O)Nc3cc(C(F)(F)F)ccc3F)cc2)n1.O=C(O)C(F)(F)F [TCMDC-141634]
PCT_INHIB_3D7_PFLDH (3D7 PFLDH [1]): 0%
PCT_INHB_DD2 (DD2 [3]): 19%
PCT_INHIB_HEPG2 (HepG2 cells; [9]): 96%
PCT_IHB_3D7 (P. falciparum 3D7 cells; [10]): 94%
pXC50_3D7 (P. falciparum 3D7 cells; [10]): 5.978
IC50 [4, 11]: 0.705 µM

Compound: CN(c1ccc(NC(=O)Nc2cc(C(C)(C)C)on2)cc1)c1ccnc(NCCN2CCOCC2)n1.O=C(O)C(F)(F)F [TCMDC-141706]
PCT_INHIB_3D7_PFLDH (3D7 PFLDH [1]): 0%
PCT_INHB_DD2 (DD2 [3]): 18%
PCT_INHIB_HEPG2 (HepG2 cells; [9]): 51%
PCT_IHB_3D7 (P. falciparum 3D7 cells; [10]): 95%
pXC50_3D7 (P. falciparum 3D7 cells; [10]): 5.949
IC50 [4, 11]: 0.375 µM

Now from value to molecule, other results behind:

IC50 [2]: 0.115 µM
Compound: Oc1cccc(-c2cnc3ccc(NCc4ccc(F)cc4)nn23)c1 [TCMDC-136676]
PCT_INHB_DD2 (DD2 [5]): 66
PCT_INHIB_3D7_PFLDH (3D7 PFLDH [6]): 2
PCT_INHIB_HEPG2 (HepG2 cells; [12]): 0
PCT_IHB_3D7 (P. falciparum 3D7 cells; [13]): 91
pXC50_3D7 (P. falciparum 3D7 cells; [13]): 5.965

IC50 [2]: 0.246 µM
Compound: N#Cc1ccc(-c2cnc3ccc(NCCc4cccnc4)nn23)cc1 [TCMDC-136679]
PCT_INHB_DD2 (DD2 [5]): 81
PCT_INHIB_3D7_PFLDH (3D7 PFLDH [6]): 6
PCT_INHIB_HEPG2 (HepG2 cells; [12]): 27
PCT_IHB_3D7 (P. falciparum 3D7 cells; [13]): 99
pXC50_3D7 (P. falciparum 3D7 cells; [13]): 6.593

IC50 [2]: 0.997 µM
Compound: Cl.Oc1cccc(Nc2ccnc3cc(-c4nccs4)ccc23)c1 [TCMDC-138297]
PCT_INHIB_3D7_PFLDH (3D7 PFLDH [6]): 0
PCT_INHIB_HEPG2 (HepG2 cells; [12]): 0
PCT_IHB_3D7 (P. falciparum 3D7 cells; [13]): 98

IC50 [2]: 0.232 µM
IC50 [4, 11]: 0.179 µM
Compound: CN1CCN(c2ccc(Nc3nccc(-c4cnn5ncccc45)n3)cc2Cl)CC1 [TCMDC-138688]
PCT_INHB_DD2 (DD2 [7]): 92
PCT_INHIB_HEPG2 (HepG2 cells; [14]): 65
PCT_IHB_3D7 (P. falciparum 3D7 cells; [15]): 95
pXC50_3D7 (P. falciparum 3D7 cells; [15]): 6.08
PCT_INHIB_3D7_PFLDH (3D7 PFLDH [8]): 0

IC50 [4, 11]: 0.246 µM
Compound: NS(=O)(=O)c1cccc(Nc2nccc(-c3cnn4ncccc34)n2)c1 [TCMDC-138919]
PCT_INHB_DD2 (DD2 [7]): 89
PCT_INHIB_HEPG2 (HepG2 cells; [14]): 39
PCT_IHB_3D7 (P. falciparum 3D7 cells; [15]): 89
pXC50_3D7 (P. falciparum 3D7 cells; [15]): 6.18
PCT_INHIB_3D7_PFLDH (3D7 PFLDH [8]): 0
